Assay results from PubChem BioAssay (NCI).
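Results reflect a 48-hour exposure of cells in 96-well plates to compound at five concentrations. Abbreviation: GI50, concentration required for 50% inhibition of growth. TGI: total growth inhibition.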

Legend:
Test in all cases: growth of human tumour cells (NCI), 48 h
SF-539 CNS = tested on: SF-539 CNS
HS 578T breast = tested on: HS 578T breast
U251 CNS = tested on: U251 CNS
HCC-2998 colon = tested on: HCC-2998 colon
RPMI-8226 leukemia = tested on: RPMI-8226 leukemia
DU-145 prostate = tested on: DU-145 prostate
HCT-15 colon = tested on: HCT-15 colon
UACC-257 melanoma = tested on: UACC-257 melanoma
BT-549 breast = tested on: BT-549 breast
OVCAR-4 ovarian = tested on: OVCAR-4 ovarian
LOX IMVI melanoma = tested on: LOX IMVI melanoma

Row | Compound | TGI (SF-539 CNS) [µM] | TGI (HS 578T breast) [µM] | TGI (U251 CNS) [µM] | TGI (HCC-2998 colon) [µM] | TGI (RPMI-8226 leukemia) [µM] | TGI (DU-145 prostate) [µM] | TGI (HCT-15 colon) [µM] | TGI (UACC-257 melanoma) [µM] | TGI (BT-549 breast) [µM] | TGI (OVCAR-4 ovarian) [µM] | TGI (LOX IMVI melanoma) [µM] | GI50 (HS 578T breast) [µM] | GI50 (HCC-2998 colon) [µM] | GI50 (RPMI-8226 leukemia) [µM] | GI50 (UACC-257 melanoma) [µM] | GI50 (BT-549 breast) [µM] | GI50 (SF-539 CNS) [µM] | GI50 (U251 CNS) [µM] | GI50 (DU-145 prostate) [µM] | GI50 (HCT-15 colon) [µM]
1 | COc1ccc2c(O)c3[n+](cc2c1OC)CCc1cc2c(cc1-3)OCO2 | > 100 | > 100 | > 100 | > 100 | > 100 | > 100 | > 100 | > 100 | > 100 | > 100 | > 100 |  |  |  |  |  |  |  |  | 
2 | ClCCN(CCCl)Cc1ccc(Nc2ccnc3cc(Cl)ccc23)cc1 |  | 8.38 |  | 2.76 | 5.41 |  |  | 5.71 | 6.04 |  |  | 2.92 | 1.41 | 1.72 | 1.9 | 2.12 |  |  |  | 
3 | COc1ccc(C(=O)C2CC3(CCC2(O)c2ccc(OC)cc2)CC(=O)Nc2ccccc2C3=O)cc1 (stereo not given) | > 100 | > 100 | > 100 | > 100 |  | > 100 | > 100 | > 100 | > 100 | 39.9 | > 100 |  |  |  |  |  |  |  |  | 
4 | COC[C@H]1C(=O)NCC(=O)N2NCCC[C@H]2C(=O)N(O)[C@H](C)C(=O)O[C@@H](C(C)C)[C@H](NC(=O)[C@](C)(O)[C@]2(O)CC[C@@H](CC(C)C)[C@H](C)O2)C(=O)N2NCCC[C@@H]2C(=O)N1O | 0.0285 | 0.0244 | 0.0216 |  |  | 0.0232 | 0.0433 | 0.0292 |  |  |  | < 0.01 |  |  | 0.015 |  | 0.0146 | < 0.01 | < 0.0114 | 0.0176
5 | CO/C(=N\N=C(/C)C(F)(F)F)c1ccncc1 |  | > 100 | > 100 |  | > 100 | > 100 | > 100 |  | > 100 | > 100 |  |  |  |  |  |  |  |  |  | 
6 | CCOc1ncn(-c2ccc(NC(=S)Nc3cccc(O)c3)cc2)n1 | > 100 |  | > 100 | > 100 | > 100 | > 100 | > 100 | > 100 | > 100 | > 100 | > 100 |  |  |  |  |  |  |  |  | 
